For one compound, Kd, Aβ levels and plaque load results are on record in patent US20130190370A1, “Novel Tetrahydronaphalene Antagonists to the Thromboxane A2 (TP) Receptor” (The Trustees of the University of Pennsylvania, priority 2010, published 2013).

pKd: −log10 of the molar value.

For one test, the target named is T1, mouse TP receptor (Mus musculus, UniProt P30987).
T1 construct: expressed in transfected cells
T1 sequence (P30987 1-341): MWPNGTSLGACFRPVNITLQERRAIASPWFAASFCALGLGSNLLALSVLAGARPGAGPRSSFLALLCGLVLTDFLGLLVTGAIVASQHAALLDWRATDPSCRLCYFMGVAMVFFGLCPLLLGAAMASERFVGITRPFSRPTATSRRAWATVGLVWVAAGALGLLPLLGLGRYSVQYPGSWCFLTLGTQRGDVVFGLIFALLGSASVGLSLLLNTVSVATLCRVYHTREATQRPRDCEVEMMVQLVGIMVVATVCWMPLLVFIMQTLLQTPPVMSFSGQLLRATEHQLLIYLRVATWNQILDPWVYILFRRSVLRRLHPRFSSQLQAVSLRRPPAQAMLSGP
Put plainly: Radioligand binding assay (3H-SQ29,548), mouse TP receptor. Conditions: read-out: Kd / affinity at the mouse TP receptor. On the procedure: QBI-HEK 293A cells expressing human or mouse TxA2 (TP) receptor were grown as described previously and harvested in phosphate-buffered saline with 1 mM EDTA. The cell pellet was homogenized in a glass homogenizer in 20 mM Hepes, 1 mM EGTA, 0.5 mM DTT with protease inhibitor cocktail. The homogenate was initially centrifuged at 1000×g for 10 minutes at 8° C. to remove cell debris. The homogenate was then centrifuged in a Beckman L8-70M ultracentrifuge (Beckman-Coulter, Brea, Calif., USA) at 21,000 rpm for 30 minutes at 4° C., and the pellet was resuspended in 20 mM Hepes, 1 mM EGTA, 100 mM NaCl. Membrane preparations were normalized to protein level as determined with a BCA assay (ThermoFisher, Rockland, Ill.) and stored at −80° C.
Test antagonists were incubated at 10 different concentrations with 25 μg membrane and 25 nM ^3H-SQ29,548 (PerkinElmer, Waltham, Mass., USA) in 50 mM Tris, 4 mM CaCl2, 0.1% ascorbic acid pH 7.5 for 2 hours at 25° C. in 96-well polystyrene plates. Separation of bound from free radioligand was accomplished by rapid vacuum filtration onto 96-well GF/B filter plates (PerkinElmer, Waltham, Mass., USA). Filters were washed 8 times in 50 mM Tris, pH 6.9 and allowed to dry for 16 hours, Plates were sealed and filters dissolved in 50 μL Betaplate Scintillation fluid (PerkinElmer, Waltham, Mass., USA) and read on a scintillation counter. Data are presented as percent total binding as calculated by a minimum of 3 wells containing membrane and ^3H-SQ29,548 without antagonist.
Equilibrium dissociation constants (Kd), IC50, and Schild regression analyses was performed with GraphPad Prism software (GraphPad Software Inc., La Jolla, Calif., USA).
To facilitate the characterization of the new compounds, cell-based TP receptor functional assays were optimized. HEK293 clones have been produced that stably express the human (hTP) or mouse (mTP) TP receptor (a isoform), and treatment of these clones with I-BOP ([1S-[1α,2α(Z),3β(1E,3S*),4α]]-7-[3-[3-hydroxy-4-(4-iodophenoxy)-1-butenyl]-7-oxabicyclo[2.2.1]hept-2-yl]-5-heptenoic acid) results in increased production of inositol triphosphate (IP3) (Knezevic, et al., 1993, Blood 82:A156; Shenker, et al., 1991, J Biol Chem 266:9309-9313; Huang, et al., 2004, Cell Signal 16:521-533) which can be quantified by measuring the breakdown product, inositol monophosphates (IP1), using a commercial time-resolved fluorescence assay. […] A radioligand binding assay was also developed to allow for the determination of binding affinities of compounds at the hTP and mTP receptors.

A further test relates to Tg2576 mice. Conditions: cited from earlier work.

With `Cc1ccc2c(c1CCC(=O)O)CC[C@@H](NS(=O)(=O)c1ccc(Cl)cc1)C2` [Compound S18886], on mouse TP receptor, the pKd was 9.44. The Aβ levels result in the test with Tg2576 mice (Tg2576 mice, drinking water) was “reduced Aβ levels”. Besides, the plaque load result in the test on Tg2576 mice (long-term treatment, relative to untreated mice) is “significant diminution of plaque load”.
